The nature of this series: Side effects compared with quinidine and lidocaine. As to conditions: as compared to quinidine and lidocaine.

The text below walks through data of patent publication EP0066987B1, “N-(aryloxyalkyl)-N'-(amino-alkyl) ureas” (A.H. ROBINS COMPANY, INCORPORATED, priority 1981, dated 1982).

For the molecule `CC(C)N(CCOc1cc(Cl)cc(Cl)c1)C(=O)NCCN(C)C.O=C(O)/C=C\C(=O)O` [Example 3, N-[2-(3,5-Dichlorophenoxy)ethyl]-N'-[2-(dimethylamino)ethyl]-N-(1-methylethyl)urea, maleate [1:1]], the CNS side effects result is “minimal CNS side effects”.
